EC50 and Emax data for 18 compounds are collected here from patent publication US9834542B2, “LXR modulators” (BRISTOL-MYERS SQUIBB COMPANY, priority 2013, dated 2017).

For orientation: EC50 means the midpoint of the concentration-response curve.

The target of this test is T1, LXRβ (Homo sapiens, UniProt P55055).
T1 construct: Co-transfection expression plasmids, comprising full-length LXRα (pCMX-h LXRα[…] or LXRβ (pCMX-hLXRβ)); expressed in transfected cells; host or cells: CV-1 African Green Monkey Kidney Cells
T1 sequence (P55055 1-460): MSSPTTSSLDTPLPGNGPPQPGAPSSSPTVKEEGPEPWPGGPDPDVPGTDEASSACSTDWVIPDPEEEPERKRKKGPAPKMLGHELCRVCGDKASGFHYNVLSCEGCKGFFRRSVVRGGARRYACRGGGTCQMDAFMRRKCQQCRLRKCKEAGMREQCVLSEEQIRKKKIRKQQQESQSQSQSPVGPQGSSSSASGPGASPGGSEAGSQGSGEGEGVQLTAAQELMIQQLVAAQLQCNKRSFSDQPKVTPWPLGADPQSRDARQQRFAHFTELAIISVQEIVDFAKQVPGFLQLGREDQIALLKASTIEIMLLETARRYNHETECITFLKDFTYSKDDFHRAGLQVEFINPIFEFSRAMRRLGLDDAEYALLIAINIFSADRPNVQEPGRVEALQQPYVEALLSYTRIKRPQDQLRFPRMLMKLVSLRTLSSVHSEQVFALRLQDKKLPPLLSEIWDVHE
T1 sequence (P19793 1-462 partner): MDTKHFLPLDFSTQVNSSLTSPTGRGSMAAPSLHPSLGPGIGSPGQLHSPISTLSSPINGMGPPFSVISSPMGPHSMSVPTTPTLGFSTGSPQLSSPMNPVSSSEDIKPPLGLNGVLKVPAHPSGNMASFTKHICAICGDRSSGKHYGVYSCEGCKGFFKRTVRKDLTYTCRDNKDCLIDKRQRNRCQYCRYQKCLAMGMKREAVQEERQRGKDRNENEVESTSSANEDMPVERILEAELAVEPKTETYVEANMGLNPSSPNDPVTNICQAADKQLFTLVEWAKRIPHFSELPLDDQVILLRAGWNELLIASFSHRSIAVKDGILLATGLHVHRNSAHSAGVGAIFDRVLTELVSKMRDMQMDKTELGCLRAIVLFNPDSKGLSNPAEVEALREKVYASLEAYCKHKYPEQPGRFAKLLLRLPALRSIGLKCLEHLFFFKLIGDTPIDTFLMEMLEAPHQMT
The experiment in a line: Co-transfection assay (LXRE luciferase reporter), LXRβ. Type of test: cell-based. The following applies: for EC50: CV-1 cells transfected with pCMX-hLXRβ and LXREx1-Tk-Luciferase, 20 hours incubation; for Emax: LXRβ co-transfection, relative to high control 1-(2,4-difluorobenzyl)-2-oxo-6-(4-phenoxyphenyl)-4-(trifluoromethyl)-1,2-dihydropyridine-3-carbonitrile, read-out: % Efficacy. A digest of the protocol: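 CV-1 cells transiently co-transfected with full-length human LXRβ expression plasmid, LXREx1-Tk-luciferase reporter and β-galactosidase control, then exposed to compound for 20 h at 37 °C. Luciferase luminescence read; EC50 from 11-point, ½-log dose–response fit, efficacy relative to high-control agonist maximum.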

Take `Cc1nc(C(F)(F)F)cn1-c1ccc(-c2cc(F)c(CO)c(S(C)(=O)=O)c2)cc1-c1nc(CC(C)C)oc1-c1ccc(OC(F)(F)F)cc1` [Example 561, (3-fluoro-3′-(2-isobutyl-5-(4-(trifluoromethoxy)phenyl)oxazol-4-yl)-4′-(2-methyl-4-(trifluoromethyl)-1H-imidazol-1-yl)-5-(methylsulfonyl)-[1,1′-biphenyl]-4-yl)methanol]: the EC50 is 13 nM and the Emax was found to be 71%.

As for `Cc1nc(C(F)(F)F)cn1-c1ccc(-c2cccc(S(C)(=O)=O)c2)cc1-c1nc(CC(C)C)oc1-c1ccc(OC(F)(F)F)cc1` [Example 562, 2-isobutyl-4-(4-(2-methyl-4-(trifluoromethyl)-1H-imidazol-1-yl)-3′-(methylsulfonyl)-[1,1′-biphenyl]-3-yl)-5-(4-(trifluoromethoxy)phenyl)oxazole], the midpoint of the response, the EC50, lay at 34 nM and the Emax worked out at 77%.

Regarding `Cc1nc(C(F)(F)F)cn1-c1ccc(-c2ccc(CO)c(S(C)(=O)=O)c2)cc1-c1nc(CC(C)C)oc1-c1ccc(OC(F)(F)F)cc1` [Example 563, (3′-(2-isobutyl-5-(4-(trifluoromethoxy)phenyl)oxazol-4-yl)-4′-(2-methyl-4-(trifluoromethyl)-1H-imidazol-1-yl)-3-(methylsulfonyl)-[1,1′-biphenyl]-4-yl)methanol], the EC50 is 13 nM and the Emax worked out at 70%.

`COCCc1nc(-c2cc(-c3cccc(S(C)(=O)=O)c3)ccc2-n2cc(C(F)(F)F)nc2C)c(-c2ccc(OC(F)(F)F)cc2)o1` [Example 564, 2-(2-methoxyethyl)-4-(4-(2-methyl-4-(trifluoromethyl)-1H-imidazol-1-yl)-3′-(methylsulfonyl)-[1,1′-biphenyl]-3-yl)-5-(4-(trifluoromethoxy)phenyl)oxazole]: the EC50 was 164 nM and the Emax was found to be 57%.

As for `Cc1nc(C(F)(F)F)cn1-c1ccc(-c2cccc(S(C)(=O)=O)c2)cc1-c1nc(C(C)CO)oc1-c1ccc(OC(F)(F)F)cc1` (stereo not drawn) [Example 565, 2-(4-(4-(2-methyl-4-(trifluoromethyl)-1H-imidazol-1-yl)-3′-(methylsulfonyl)-[1,1′-biphenyl]-3-yl)-5-(4-(trifluoromethoxy)phenyl)oxazol-2-yl)propan-1-ol], the EC50 amounted to 354 nM and the Emax stood at 30%.

As to `Cc1nc(-c2cc(-c3cccc(S(C)(=O)=O)c3)ccc2-n2cc(C(F)(F)F)nc2C)c(-c2ccc(Cl)nc2Cl)o1` [Example 566, 5-(2,6-dichloropyridin-3-yl)-2-methyl-4-(4-(2-methyl-4-(trifluoromethyl)-1H-imidazol-1-yl)-3′-(methylsulfonyl)-[1,1′-biphenyl]-3-yl)oxazole], the response was half-maximal at 227 nM (EC50) and the Emax was found to be 94%.

As for `Cc1nc(-c2cc(-c3cc(F)c(CO)c(S(C)(=O)=O)c3)ccc2-n2cc(C(F)(F)F)nc2C)c(-c2ccc(Cl)nc2Cl)o1` [Example 567, (3′-(5-(2,6-dichloropyridin-3-yl)-2-methyloxazol-4-yl)-3-fluoro-4′-(2-methyl-4-(trifluoromethyl)-1H-imidazol-1-yl)-5-(methylsulfonyl)-[1,1′-biphenyl]-4-yl)methanol], the midpoint of the response, the EC50, lay at 111 nM and the Emax is 93%.

Turning to `Cc1nc(-c2cc(-c3cc(F)c(CO)c(S(C)(=O)=O)c3)ccc2-n2cc(C(F)(F)F)nc2C)c(-c2ccc(C(F)(F)F)nc2)o1` [Example 568, (3-fluoro-4′-(2-methyl-4-(trifluoromethyl)-1H-imidazol-1-yl)-3′-(2-methyl-5-(6-(trifluoromethyl)pyridin-3-yl)oxazol-4-yl)-5-(methylsulfonyl)-[1,1′-biphenyl]-4-yl)methanol], a half-maximal response (EC50) required 552 nM and the Emax amounted to 68%.

For the compound `COc1ccc(-c2oc(C)nc2-c2cc(-c3cccc(S(C)(=O)=O)c3)ccc2-n2cc(C(F)(F)F)nc2C)cn1` [Example 569, 5-(6-methoxypyridin-3-yl)-2-methyl-4-(4-(2-methyl-4-(trifluoromethyl)-1H-imidazol-1-yl)-3′-(methylsulfonyl)-[1,1′-biphenyl]-3-yl)oxazole], the EC50 came to 214 nM and the Emax stood at 90%.

For `COc1ccc(-c2oc(C)nc2-c2cc(-c3cc(F)c(CO)c(S(C)(=O)=O)c3)ccc2-n2cc(C(F)(F)F)nc2C)cn1` [Example 570, (3-fluoro-3′-(5-(6-methoxypyridin-3-yl)-2-methyloxazol-4-yl)-4′-(2-methyl-4-(trifluoromethyl)-1H-imidazol-1-yl)-5-(methylsulfonyl)-[1,1′-biphenyl]-4-yl)methanol], the EC50 turned out to be 199 nM and the Emax is 93%.

Regarding `Cc1nc(-c2cc(-c3cccc(S(C)(=O)=O)c3)ccc2-n2cc(C(F)(F)F)nc2C)c(-c2ccc(SC(F)(F)F)cc2)o1` [Example 571, 2-methyl-4-(4-(2-methyl-4-(trifluoromethyl)-1H-imidazol-1-yl)-3′-(methylsulfonyl)-[1,1′-biphenyl]-3-yl)-5-(4-((trifluoromethyl)thio)phenyl)oxazole], the EC50 came out at 157 nM and the Emax was 49%.

Take `Cc1nc(-c2cc(-c3cccc(S(C)(=O)=O)c3)ccc2-n2cc(C(F)(F)F)nc2C)c(-c2ccc(OC(F)(F)C(F)(F)F)cc2)o1` [Example 572, 2-methyl-4-(4-(2-methyl-4-(trifluoromethyl)-1H-imidazol-1-yl)-3′-(methylsulfonyl)-[1,1′-biphenyl]-3-yl)-5-(4-(perfluoroethoxy)phenyl)oxazole]: the midpoint of the response, the EC50, lay at 95 nM and the Emax is 46%.

On to `Cc1nc(-c2cc(-c3cccc(S(C)(=O)=O)c3)ccc2-n2cc(C(F)(F)F)nc2C)c(-c2cccc(OC(F)(F)F)c2)o1` [Example 573, 2-methyl-4-(4-(2-methyl-4-(trifluoromethyl)-1H-imidazol-1-yl)-3′-(methylsulfonyl)-[1,1′-biphenyl]-3-yl)-5-(3-(trifluoromethoxy)phenyl)oxazole], for which the EC50 was 127 nM and the Emax amounted to 50%.

In the case of `Cc1nc(-c2cc(-c3cccc(S(C)(=O)=O)c3)ccc2-n2cc(C(F)(F)F)nc2C)c(-c2cccc(OC(F)(F)C(F)(F)F)c2)o1` [Example 574, 2-methyl-4-(4-(2-methyl-4-(trifluoromethyl)-1H-imidazol-1-yl)-3′-(methylsulfonyl)-[1,1′-biphenyl]-3-yl)-5-(3-(perfluoroethoxy)phenyl)oxazole], it took 233 nM to reach a half-maximal effect (EC50) and the Emax turned out to be 63%.

Take `CCc1nc(-c2ccc(OC(F)(F)F)cc2)c(-c2cc(-c3cc(F)c(CO)c(S(C)(=O)=O)c3)ccc2-n2cc(C(F)(F)F)nc2C)o1` [Example 600, {3′-(2-ethyl-4-{4-[(trifluoromethyl)oxy]phenyl}-1,3-oxazol-5-yl)-3-fluoro-5-(methylsulfonyl)-4′-[2-methyl-4-(trifluoromethyl)-1H-imidazol-1-yl]biphenyl-4-yl}methanol]: the EC50 turned out to be 20 nM and the Emax was found to be 101%.

In the case of `Cc1nc(C(F)(F)F)cn1-c1ccc(-c2cc(F)c(CO)c(S(C)(=O)=O)c2)cc1-c1oc(C(C)C)nc1-c1ccc(OC(F)(F)F)cc1` [Example 601, {3-fluoro-3′-[2-(1-methylethyl)-4-{4-[(trifluoromethyl)oxy]phenyl}-1,3-oxazol-5-yl]-5-(methylsulfonyl)-4′-[2-methyl-4-(trifluoromethyl)-1H-imidazol-1-yl]biphenyl-4-yl}methanol], the midpoint of the response, the EC50, lay at 30 nM and the Emax is 74%.

Regarding `CCCc1nc(-c2ccc(OC(F)(F)F)cc2)c(-c2cc(-c3cccc(S(C)(=O)=O)c3)ccc2-n2cc(C(F)(F)F)nc2C)o1` [Example 602, 5-{3′-(methylsulfonyl)-4-[2-methyl-4-(trifluoromethyl)-1H-imidazol-1-yl]biphenyl-3-yl}-2-propyl-4-{4-[(trifluoromethyl)oxy]phenyl}-1,3-oxazole], the EC50 came to 25 nM and the Emax stood at 87%.

`Cc1nc(-c2ccc(OC(F)(F)F)cc2)c(-c2cc(-c3cc(F)c(CO)c(S(C)(=O)=O)c3)ccc2-n2cc(C(F)(F)F)nc2C)o1` [Example 603, (3-fluoro-3′-(2-methyl-4-(4-(trifluoromethoxy)phenyl)oxazol-5-yl)-4′-(2-methyl-4-(trifluoromethyl)-1H-imidazol-1-yl)-5-(methylsulfonyl)-[1,1′-biphenyl]-4-yl)methanol]: the EC50 came out at 40 nM and the Emax stood at 91%.
